# From article PMC6492180, “Cytome micronucleus assays with a metabolically competent human derived liver cell line (Huh6): A promising approach for routine testing of chemicals?” (Environmental and Molecular Mutagenesis, 2018)
# Read-outs that look alike come from different tables or passages of the source.
# What was measured:
# [1] = tested on: HepaRG; conditions: HepaRG; ref Josse et al., 2012; cited from earlier work
# [2] = tested on: Human lymphocytes; conditions: cited from earlier work
# [3] = tested on: Huh6 cells
# Description: All experiments were performed in duplicate.
# 3.8–4.0 × 10^5 cells per well were seeded into 6‐well plates with 3 mL of RPMI (4% FBS) for 12 hr, then dilutions of stock solutions of the diagnostic mutagens were added for different time periods (4, 24, and 48 hr). In each experimental series solvent controls were included. Subsequently, the cells were washed twice with 3.0 mL medium. […] Finally, the cells were washed and trypsinised. Afterwards the cells were washed twice with 8.0 mL RPMI and collected on slides by cytocentrifugation (600 rpm, 5 min). The slides were air dried, fixed, and stained with DiffQuick according to the instructions of the manufacturer. For each experimental point, two cultures were tested per dose. From each culture ≥1,000 BN cells were evaluated under 400‐fold magnification (Nikon Photophot‐FXA, Tokyo, Japan). At least 2,000 binucleated cells were analyzed per dose for the determination of the different nuclear anomalies (MN, NBuds, and NBs).
# The experiments were performed as described in the previous chapter. The cells were exposed only to one dose of the different mutagens and were cultivated after the seeding in 6‐well plates which contained 4% or 10% FBS in RPMI, respectively.
# Data were evaluated by generalized linear model with Poisson counts. Chi‐square tests for overdispersion were applied. […] P values ≤0.05 were considered statistically significant.
# ^150-60 000 cells were seeded in 6 well plates with 3 ml RPMI (4% FBS), subsequently different solutions of the test compound (dissolved in medium) were added. After treatment for different time periods, the cells was washed and processed as described in the Material and Method section. […] From each culture 1000 binoculated cells were evaluated. BN-MN – number of micronucleated cells; MN - total number of micronuclei; CBPI – cytokinesis-block proliferation index
# ^1The experiments were conducted essentially as described in the footnote of Table S1A-I. *p≤0.05
# [4] = tested on: HepG2; conditions: cited from earlier work
compound,measurement,setting,value
ClC(Cl)=C(c1ccc(Cl)cc1)c1ccc(Cl)cc1 [dichlorodiphenyldichloroethylene],"MN formation with the longer exposure time, treatment for 1 or 7 days (in words)",[1],no such effects
"OO [H2O2, Hydrogen peroxide]",Lowest effective concentration (LOEC) in micronucleus experiments,[2],"100 (Andreoli et al., 1999) μM"
same,Change of MN rates after 48 hr treatment (in words),[3],slight decrease
same,Induction of MN after 4 hr treatment (in words),[3],did not cause an effect
same,Lowest effective concentration (LOEC) in micronucleus experiments,[3],10.0 µM
same,MN effects after 24 hr (or longer) compared with 4 hr treatment (in words),[3],more pronounced effects
same,MN frequencies with 10% serum compared with 4% serum (in words),[3],not increased
"c1ccc2c(c1)cc1ccc3cccc4ccc2c1c34 [B(a)P, Benzo(a)pyrene]",CBPI,"[3]; 4% FBS, 4hrs, 5 µM",1.6 ± 0.1
same,CBPI,"[3]; 4% FBS, 4hrs, 10 µM",1.6 ± 0.0
same,CBPI,"[3]; 4% FBS, 4hrs, 20 µM",1.6 ± 0.1
same,CBPI,"[3]; 4% FBS, 24hrs, 5 µM",1.4 ± 0.1
same,CBPI,"[3]; 4% FBS, 24hrs, 10 µM",1.2 ± 0.1
same,CBPI,"[3]; 4% FBS, 48hrs, 0.4 µM",1.9 ± 0.0
same,CBPI,"[3]; 4% FBS, 48hrs, 5 µM",1.1 ± 0.1
same,CBPI,"[3]; 10% FBS, 24 hr treatment, 5 µM",1.7 ± 0.0
same,CBPI,"[3]; 10% FBS, 24 hr treatment, 10 µM",1.3 ± 0.1
COc1cc([C@@H]2c3cc4c(cc3[C@@H](O[C@@H]3O[C@@H]5CO[C@@H](C)O[C@H]5[C@H](O)[C@H]3O)[C@H]3COC(=O)[C@H]23)OCO4)cc(OC)c1O [Etoposide],CBPI,"[3]; 4% FBS, 4hrs, 0.01 µg/ml",1.8 ± 0.1
same,CBPI,"[3]; 4% FBS, 4hrs, 0.05 µg/ml",1.8 ± 0.1
same,CBPI,"[3]; 4% FBS, 4hrs, 0.1 µg/ml",1.8 ± 0.1
same,CBPI,"[3]; 4% FBS, 24hrs, 0.01 µg/ml",1.9 ± 0.0
same,CBPI,"[3]; 4% FBS, 24hrs, 0.1 µg/ml",1.8 ± 0.0
same,CBPI,"[3]; 4% FBS, 48hrs, 0.01 µg/ml",1.7 ± 0.0
same,CBPI,"[3]; 4% FBS, 48hrs, 0.1 µg/ml",1.1 ± 0.0
same,CBPI,"[3]; 10% FBS, 24 hr treatment, 0.1 µg/ml",1.9 ± 0.0
O=P1(N(CCCl)CCCl)NCCCO1 (centres unmarked) [cyclophosphamide],MN induction after 28 hr compared with 1 hr exposure (in words),[4],stronger effects
COC(=O)Nc1nc2cc(C(=O)c3cccs3)ccc2[nH]1 [noctazole],"MN formation with the longer exposure time, treatment for 1 or 7 days (in words)",[1],no such effects
